In patent US20240217973A1, “IMIDAZOPYRIDINE COMPOUNDS AND USE THEREOF” (MEDSHINE DISCOVERY INC., priority 2021, published 2024):

How the values were obtained:
plasma proteins = assay: Plasma protein binding experiment (PPB), C; type: in vitro ADME, cynomolgus monkey; details: 2 μM, 4 hours dialysis
Experimental: Experimental operation: 995 μL of blank plasma of each genus was taken, 5 μL of working solution of test compound (400 μM) or working solution of warfarin (400 μM) was added, so that the final concentrations of the test compound and warfarin in the plasma sample was 2 μM. The sample was mixed thoroughly. The final concentration of the organic phase DMSO was 0.5%; 50 μL of plasma samples of the test compound and warfarin were pipetted into the sample receiving plate (three parallels), and the corresponding volume of the corresponding blank plasma or buffer was immediately added so that the final volume of each sample well was 100 μL, with a volume ratio of 1:1 for plasma: dialysis buffer, and then 500 μL of stop solution was added to these samples, and these samples would be used as a T0 sample for the recovery and stability determination. […] All samples were analyzed by LC/MS/MS after protein precipitation, and the protein binding rate and recovery rate were calculated by the formula: % Unbound=100*F/T, % Bound=100−% Unbound, % Recovery 100*(F+T) T0 (where F was the peak area ratio of the compound in the dialysate after 4 hours of dialysis; T was the peak area ratio of the compound in the plasma after 4 hours of dialysis, and T0 was the peak area ratio of the compound in the plasma sample at zero time).

[1] = Pharmacokinetic evaluation of compounds in dogs; type: in vivo; details: dog, plasma, beagle dogs
Experimental: Experimental purpose: To test the in vivo pharmacokinetic data of compounds in beagle dogs.
(§1) The compound was mixed with the solvent 5% DMSO/5% Solutol/90% H2O, vortexed and sonicated to prepare a 0.5 mg/mL clear solution. The beagle dogs were administered the candidate compound solution intravenously. Whole blood was collected for a certain period of time, and plasma was prepared. The drug concentration was analyzed by LC-MS/MS method, and pharmacokinetic parameters were calculated.
as §1, with “administered” for “administered the”, “solutions orally.” for “solution intravenously.”, “LC- MS/MS” for “LC-MS/MS”

[2] = IV, 0.49 mg/kg (002), 0.5 mg/kg (003B)

In the case of `Nc1nccc2c1n(-c1ccc(Oc3ccccc3)cc1)c(=O)n2[C@@H]1CCCN(C(=O)/C=C/CF)C1` [Compound 002], the “Unbound PPB” value (plasma proteins) is reported as 4.1%, the AUC(0-inf) [1, 2] is reported as 0.684 µM·h and the C0 [1, 2] is reported as 1710 nM. For the same molecule, the Vd [1, 2] was 1.5 L/kg, the clearance [1, 2] was 25.6 mL/min/kg and the half-life [1, 2] was 58.2 min. It also gave an AUC(0-inf) ([1]; PO, 2.0 mg/kg) of 2.25 µM·h, a Cmax ([1]; PO, 2.0 mg/kg) of 1140 nM and a Tmax ([1]; PO, 2.0 mg/kg) of 30 min. The bioavailability ([1]; PO, 2.0 mg/kg) was 82.2% and the half-life ([1]; PO, 2.0 mg/kg) was 42.6 min.
